Consider eleven compounds from patent US6140354A, “N-substituted aminotetralins as ligands for the neuropeptide Y Y5 receptor useful in the treatment of obesity and other disorders” (Ortho-McNeil Pharmaceutical, Inc., priority 1999, dated 2000).

For this test, the target named is T1, human neuropeptide Y5 receptor (Homo sapiens, UniProt Q15761).
T1 construct: expressed in transfected cells
T1 sequence (Q15761 1-445): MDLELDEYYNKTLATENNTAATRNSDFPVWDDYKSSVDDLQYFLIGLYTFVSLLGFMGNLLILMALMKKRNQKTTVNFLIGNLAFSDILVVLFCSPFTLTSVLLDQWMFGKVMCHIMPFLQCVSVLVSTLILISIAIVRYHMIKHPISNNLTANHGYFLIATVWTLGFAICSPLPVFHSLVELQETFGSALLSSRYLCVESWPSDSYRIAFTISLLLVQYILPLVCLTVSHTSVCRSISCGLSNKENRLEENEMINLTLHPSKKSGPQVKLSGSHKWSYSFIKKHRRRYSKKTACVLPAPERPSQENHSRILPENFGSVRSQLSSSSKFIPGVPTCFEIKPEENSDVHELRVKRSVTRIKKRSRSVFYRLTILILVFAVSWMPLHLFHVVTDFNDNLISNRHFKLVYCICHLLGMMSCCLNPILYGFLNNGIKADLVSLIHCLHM
The test can be described thus: NPY5 HTS Centrifugation Assay: competition with 125I-PYY for binding to NPY5-transfected HEK293 cell membranes. Particulars: 80 pM 125I-PYY, 1 hr room temperature, read-out: % Inh @ 3 uM (% Inhibition of ^125 I-PYY Binding). The protocol:
The compounds described in this invention were evaluated for binding to the human neuropeptide Y5 receptor.
The human NPY5 receptor cDNA (Genbank Accession number U66275) was inserted into the vector pClneo (Invitrogen) and transfected into human embryonic kidney cells (HEK-293) via Calcium phosphate method (Cullen 1987). Stably transfected cells were selected with G-418 (600 ug/mL). Stably transfected cells served as the source for the membranes for the NPY5 receptor binding assay.
NPY5-transfected HEK293 cells were grown to confluence in 150 cm^2 culture dishes. Cells were washed once with phosphate-buffered saline (Gibco Cat#14040-133). Cells were then incubated in phosphate-buffered saline without Calcium and without Magnesium, supplemented with 2 mM EDTA. Cells were incubated for 10 minutes at room temperature and the cells were collected by repetitive pipeting. Cells were formed into pellets and then frozen at -80 until needed. Frozen pellets were homogenized with a polytron at full speed for 12 seconds in a homogenization buffer (20 mM Tris HCl, 5 mM EDTA, pH 7.4). Homogenates were centrifuged for 5 minutes at 4C at 200 g. Supernatants were transferred to corex tubes and centrifuged for 25 minutes at 28,000 g. Pellets were re-suspended in Binding (20 mM HEPES, 10 mM NaCl, 0.22 mM KH2 PO4, 1.3 mM CaCl2, 0.8 mM MgSO4, pH 7.4). Membranes were kept on ice until use.
A competition binding assay, known to those skilled in the art, was used in which aminotetralins (I) compete with ^125 I-PYY for binding to cell membranes. In simple terms, the less ^125 I-PYY bound to the membranes implies that a compound is a good inhibitor (competitor). Bound ^125 I-PYY is determined by centrifugation of membranes, aspirating supernatant, washing away residual ^125 I-PYY and subsequently counting the bound sample in a g-counter.
Compounds to be tested were prepared as 10× stocks in binding buffer and added first to assay tubes (RIA vials, Sarstedt). Twenty (20) μL of each 10× compound stock is pipeted into vials and 80 μL of ^125 I-PYY (NEN catalog number NEX240), which has been diluted to a concentration of 200 pM in 0.25% BSA in binding buffer, is added to the compound tubes (final concentration of ^125 I-PYY is 80 pM). To each tube is added 100 μL of membranes and the mixture is agitated by pipeting 2 times. Samples are incubated for 1 hr at room temperature. Aluminum cast plates (Sarstedt) containing the vials are then centrifuged 10 minutes at 3200 rpm in a Sorvall RT6000. Supernatant is then aspirated. To each vial 400 μL PBS is added and this is then aspirated again. Vials are then put in carrier polypropylene 12×75 tube and counted in gamma counter (Packard). Non-specific binding is determined in the presence of 300 nM NPY. Percent inhibition of ^125 I-PYY binding is calculated by subtracting non-specific binding from the test samples (compound (I)), taking these counts and dividing by total binding, and multiplying by 100. Inhibitory concentration values (IC50) of compounds that show appreciable inhibition of ^125 I-PYY binding are calculated by obtaining percent inhibition of ^125 I-PYY binding values at different concentrations of the test compound, and using a graphing program such as GraphPad Prism (San Diego, Calif.) to calculate the concentration of test compound that inhibits fifty-percent of ^125 I-PYY binding (Table 4). These operations are known to those skilled in the art.
For the compound `COc1ccc2c(c1)CC[C@H](NC[C@H]1CC[C@H](CNS(=O)(=O)c3ccc4ccccc4c3)CC1)[C@@H]2Cc1ccccc1` (relative stereo) [Compound 10, rac-[1α,2α(trans)]-N-[[[[[1,2,3,4-tetrahydro-6-methoxy-1-(phenylmethyl)-2-naphthalenyl]amino]methyl]-4-cyclohexyl]methyl]2-naphthalenesulfonamide], the inhibition at 3 µM was 96%.
In the case of `COc1ccc2c(c1)CC[C@H](NCCCCCNS(=O)(=O)c1ccc3ccccc3c1)[C@@H]2Cc1ccccc1` (relative stereo) [Compound 11, rac-[1α,2α(trans)]-N-[[[[[1,2,3,4-tetrahydro-6-methoxy-1-(phenylmethyl)-2-naphthalenyl]amino]-5-pentyl]2-naphthalenesulfonamide], the inhibition at 3 µM was 95%.
The value for `COc1ccc2c(c1)CC[C@H](NC[C@H]1CC[C@H](CNS(=O)(=O)c3ccc4ccccc4c3)CC1)[C@@H]2Cc1cccnc1` (relative stereo) [Compound 18, rac-[1α,2α(trans)]-N-[[[[[1,2,3,4-tetrahydro-6-methoxy-1-(3-pyridinylmethyl)-2-naphthalenyl]amino]methyl]-4-cyclohexyl]methyl]2-naphthalenesulfonamide] was 96%; that for `O=S(=O)(NC[C@H]1CC[C@H](CN[C@H]2CCc3cc(F)ccc3[C@H]2Cc2ccccc2)CC1)c1ccccc1F` (relative stereo) [Compound 26, rac-[1α,2α(trans)]-N-[[[[[1,2,3,4-tetrahydro-6-fluoro-1-(3-phenylmethyl)-2-naphthalenyl]amino]methyl]-4-cyclohexyl]methyl]2-fluorobenzenesulfonamide] was 107%.
On to `COc1ccc2c(c1)CC[C@H](NC[C@H]1CC[C@H](CNS(=O)(=O)c3ccc4ccccc4c3)CC1)[C@@H]2c1ccccc1` (relative stereo) [Compound 34, [1α,2α(trans)]-N-[[[[[1,2,3,4-tetrahydro-6-methoxy-1-phenyl-2-naphthalenyl]amino]methyl]-4-cyclohexyl]methyl]2-naphthlenesulfonamide], for which the inhibition at 3 µM came out at 46%.
For `C=CC[C@@H]1c2ccc(OC)cc2CC[C@@H]1NC[C@H]1CC[C@H](CNS(=O)(=O)c2ccccc2)CC1` (relative stereo) [Compound 39, rac-[1α,2α(trans)]-N-[[[[[1,2,3,4-tetrahydro-6-methoxy-1-(1-propene-3-yl)-2-naphthalenyl]amino]methyl]4-cyclohexyl]methyl] benzenesulfonamide], the inhibition at 3 µM came out at 102%.
`COc1ccc2c(c1)CC[C@H](NC[C@H]1CC[C@H](CNS(=O)(=O)c3ccccc3)CC1)[C@@H]2CCCO` (relative stereo) [Compound 40, rac-[1α,2α(trans)]-N-[[[[[1,2,3,4-tetrahydro-6-methoxy-1-(3-hydroxypropyl)-2-naphthalenyl]amino]methyl]-4-cyclohexyl]methyl] benzenesulfonamide]: the inhibition at 3 µM was found to be 91%.
In the case of `CCC[C@@H]1c2ccc(OC)cc2CC[C@@H]1NC[C@H]1CC[C@H](CNS(=O)(=O)c2ccccc2)CC1` (relative stereo) [Compound 42, rac-[1α,2α(trans)]-N-[[[[[1,2,3,4-tetrahydro-6-methoxy-1-(n-propyl)-2-naphthalenyl]amino]methyl]-4-cyclohexyl]methyl] benzenesulfonamide] it was 101%; in that of `O=S(=O)(NCCCCCN[C@H]1CCc2ccccc2[C@H]1Cc1ccccc1)c1ccc2ccccc2c1` (relative stereo) [Compound 46], 89%.
Take `COc1ccc2c(c1)CC[C@H](NCCCCCCCNS(=O)(=O)c1ccc3ccccc3c1)[C@@H]2Cc1ccccc1` (relative stereo) [Compound 47]: the inhibition at 3 µM came out at 79%.
As for `COc1ccc2c(c1)CC[C@H](NCc1ccc(CNS(=O)(=O)c3ccc4ccccc4c3)cc1)[C@@H]2Cc1ccccc1` (relative stereo) [Compound 49], the inhibition at 3 µM worked out at 60%.
